# From patent publication US12582695B2, “Compositions and methods for treating glioma” (Instytut Biologii Doświadczalnej im. Marcelego Nenckiego …, priority 2018, dated 2026)
# Like-named read-outs stand apart in the source and are kept apart here. Where no end group is shown, it is not given here.
# Experiment: Solubility study
# Assay type: physicochemical
# [1] = water, read-out: Solubility Water
Compound,"solubility (PBS, read-out: Solubility PBS) [mg/mL]",solubility in water (water),solubility [1] [mg/mL],solubility in aqueous buffers (aqueous buffers such as PBS)
YKKLSYLDFQYQLD [G7K2],0.24,highest solubility,0.78,–
YQKLSYLDFQKQLD [G7K11],0.03,–,0.13,–
YQKLSYLDFQYQKD [G7K13],0.08,improved water solubility,0.36,–

# Next, values leading:
"solubility (PBS, read-out: Solubility PBS) [mg/mL]",solubility in water (water),solubility [1] [mg/mL],solubility in aqueous buffers (aqueous buffers such as PBS),Compound
0.06,improved water solubility,0.38,–,CC(C)C[C@H](NC(=O)[C@H](CCC(N)=O)NC(=O)[C@H](Cc1ccc(O)cc1)NC(=O)[C@H](CCC(N)=O)NC(=O)[C@H](Cc1ccccc1)NC(=O)[C@H](CC(=O)O)NC(=O)[C@H](CC(C)C)NC(=O)[C@H](Cc1ccc(O)cc1)NC(=O)[C@H](CO)NC(=O)[C@H](CC(C)C)NC(=O)[C@H](CCCCN)NC(=O)[C@H](CCC(N)=O)NC(=O)[C@H](Cc1ccc(O)cc1)NC(=O)[C@@H](N)CCCCN)C(=O)N[C@@H](CC(=O)O)C(=O)O [G7K-1]
0.12,water insoluble,–,weakly soluble,CC(C)C[C@H](NC(=O)[C@H](CCC(N)=O)NC(=O)[C@H](Cc1ccc(O)cc1)NC(=O)[C@H](CCC(N)=O)NC(=O)[C@H](Cc1ccccc1)NC(=O)[C@H](CC(=O)O)NC(=O)[C@H](CC(C)C)NC(=O)[C@H](Cc1ccc(O)cc1)NC(=O)[C@H](CO)NC(=O)[C@H](CC(C)C)NC(=O)[C@H](CCCCN)NC(=O)[C@H](CCC(N)=O)NC(=O)[C@@H](N)Cc1ccc(O)cc1)C(=O)N[C@@H](CC(=O)O)C(=O)O [G7]
0.08,–,0.18,–,YQKLSYLDFQYQKDK [G7K15]
